Experimental data as given in ChEMBL document CHEMBL6153077, “Design, synthesis, and anti-liver fibrosis activity of novel non-steroidal vitamin D receptor agonists based on open-ring steroid scaffold” (Eur J Med Chem, 2025).
The source made the active and inactive calls. The calls are words filed in the database; no cut-off is given here.

Key:
[1] = target: T1, Vitamin D3 receptor (Homo sapiens) (UniProt P11473); assay: Binding affinity to full-length VDR (unknown origin) at 1 uM by fluorescence polarization assay relative to control
T1 sequence (whole entry): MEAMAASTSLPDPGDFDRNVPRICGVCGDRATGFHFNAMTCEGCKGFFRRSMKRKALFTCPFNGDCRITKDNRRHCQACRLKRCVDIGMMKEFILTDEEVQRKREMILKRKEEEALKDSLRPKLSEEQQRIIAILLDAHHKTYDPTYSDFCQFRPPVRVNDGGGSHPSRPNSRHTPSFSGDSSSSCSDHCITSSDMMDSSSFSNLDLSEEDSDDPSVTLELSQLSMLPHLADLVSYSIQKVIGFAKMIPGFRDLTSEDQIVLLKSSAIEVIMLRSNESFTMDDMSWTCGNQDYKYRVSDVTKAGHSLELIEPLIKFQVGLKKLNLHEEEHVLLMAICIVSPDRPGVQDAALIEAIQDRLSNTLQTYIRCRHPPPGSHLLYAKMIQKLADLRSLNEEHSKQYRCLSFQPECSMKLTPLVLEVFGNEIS

LX-2 [2] = assay: Inhibition of HSC activation in TGF-beta1-treated human LX2 cells assessed as decrease in collagen-I level at 0.5 uM incubated for 24 hrs by Western blot analysis; format: functional, cell-based
LX-2 [3] = assay: Inhibition of HSC activation in TGF-beta1-treated human LX2 cells assessed as decrease in alpha-SMA level at 0.5 uM incubated for 24 hrs by Western blot analysis; format: functional, cell-based
LX-2 [4] = assay: Inhibition of HSC activation in TGF-beta1-treated human LX2 cells assessed as decrease in COL1A1 mRNA level at 0.5 uM incubated for 24 hrs by qPCR analysis; format: functional, cell-based
LX-2 [5] = assay: Inhibition of HSC activation in TGF-beta1-treated human LX2 cells assessed as decrease in ACTA2 mRNA level at 0.5 uM incubated for 24 hrs by qPCR analysis; format: functional, cell-based
[6] = target: T1, Vitamin D3 receptor (Homo sapiens); assay: Agonist activity at human VDR in HEK293 cells co-expressing 3-Luc/RXRalpha assessed as transcriptional activity at 0.5 uM by dual luciferase reporter assay; format: cell-based; details: filed as agonist
[7] = target: T1, Vitamin D3 receptor (Homo sapiens); assay: Agonist activity at VDR in human LX2 cells assessed as increase in CYP24A1 level at 0.5 uM by qRT-PCR analysis; format: cell-based; details: filed as agonist
LX-2 [8] = assay: Inhibition of HSC activation in TGF-beta1-treated human LX2 cells harboring VDR siRNA assessed as decrease in collagen-I level at 0.5 uM incubated for 24 hrs by Western blot analysis; format: functional, cell-based
LX-2 [9] = assay: Inhibition of HSC activation in TGF-beta1-treated human LX2 cells harboring VDR siRNA assessed as decrease in alpha-SMA level at 0.5 uM incubated for 24 hrs by Western blot analysis; format: functional, cell-based

How did the Activity ([1]; filed as agonist) turn out when `CC(C)(O)COc1ccc(/C=C/C2=C[C@@H](O)[C@@H](O)[C@H](O)C2)c2c1CCCC2` was run?
Its Activity is 72%.

With `CC(C)(O)CCCOc1ccc(C#CC2=C[C@@H](O)[C@@H](O)[C@H](O)C2)c2c1CCCC2` as the compound, how does the Activity [1] read?
Its Activity is 15%.

Which results are given for `O=C(OC1CCCc2c(OCCCN3CCOCC3)cccc21)C1=C[C@@H](O)[C@@H](O)[C@H](O)C1` (stereo partly specified)?
inhibition (LX-2 [2]): inactive; inhibition (LX-2 [3]): inactive; inhibition (LX-2 [4]): inactive; Activity [1]: 50%; inhibition (LX-2 [5]): inactive

`CC(C)(O)CCCCOc1cccc2c1CCCC2OC(=O)C1=C[C@@H](O)[C@@H](O)[C@H](O)C1` (stereo partly specified) was tested. Which Activity ([1]; filed as agonist) did it give?
Its Activity is 65%.

With `CCCC(O)(CCC)CCCOc1cccc2c1CCCC2OC(=O)C1=C[C@@H](O)[C@@H](O)[C@H](O)C1` (stereo partly specified) as the compound, how does the Activity [6] read?
The Activity was “Active”.

And the Activity [7]?
Its Activity is “Active”.

And the inhibition (LX-2 [4])?
Its inhibition is “Active”.

And the Activity ([1]; filed as agonist)?
The Activity was 77%.

What about the inhibition (LX-2 [5]) of the same compound?
The inhibition was “Active”.

For `CC(C)(O)CCCn1ccc2c(/C=C/C3=C[C@@H](O)[C@@H](O)[C@H](O)C3)cccc21`, which Activity ([1]; filed as agonist) is on record?
The Activity was 71%.

`CCC(OC(=O)C1=C[C@@H](O)[C@@H](O)[C@H](O)C1)c1cccc(OCCCC(C)(C)O)c1` (stereo partly specified) was tested. Which inhibition (LX-2 [2]) did it give?
Its inhibition is “Active”.

What about the inhibition (LX-2 [3]) of the same compound?
Its inhibition is “Active”.

What about the inhibition (LX-2 [4]) of the same compound?
The inhibition was “Active”.

What about the Activity ([1]; filed as agonist) of the same compound?
The Activity was 84%.

What about the inhibition (LX-2 [5]) of the same compound?
Its inhibition is “Active”.

`O=C(COc1ccc(/C=C/C2=C[C@@H](O)[C@@H](O)[C@H](O)C2)c2c1CCCC2)c1ccccc1` was tested. Which Activity [7] did it give?
The Activity was “Active”.

And the inhibition (LX-2 [4])?
The inhibition was “Active”.

And the Activity ([1]; filed as agonist)?
The Activity was 72%.

What about the inhibition (LX-2 [5]) of the same compound?
Its inhibition is “Active”.

For `OCc1ccc(/C=C/c2ccc(OCCCC(F)(F)F)cc2)cc1CO`, which Activity ([1]; filed as agonist) is on record?
Its Activity is 51%.

For `CC(C)(O)CCOc1ccc(/C=C/C2=C[C@@H](O)[C@@H](O)[C@H](O)C2)c2c1CCCC2`, which Activity ([1]; filed as agonist) is on record?
Its Activity is 55%.

For `CC(C)(C)C(O)COc1ccc(/C=C/C2=C[C@@H](O)[C@@H](O)[C@H](O)C2)c2c1CCCC2` (stereo partly specified), which Activity ([1]; filed as agonist) is on record?
The Activity was 50%.

How did the Activity ([1]; filed as agonist) turn out when `CC(C)(O)CCOc1ccc(C#CC2=C[C@@H](O)[C@@H](O)[C@H](O)C2)c2c1CCCC2` was run?
The Activity was 56%.

Which Activity ([1]; filed as agonist) does the source give for `CCCCC(OC(=O)C1=C[C@@H](O)[C@@H](O)[C@H](O)C1)c1cccc(OCCCC(C)(C)O)c1` (stereo partly specified) here?
The Activity was 50%.

`CCCC(OC(=O)C1=C[C@@H](O)[C@@H](O)[C@H](O)C1)c1cccc(OCCCC(C)(C)O)c1` (stereo partly specified) was tested. Which inhibition (LX-2 [2]) did it give?
The inhibition was “Active”.

What about the inhibition (LX-2 [3]) of the same compound?
Its inhibition is “Active”.

What about the inhibition (LX-2 [4]) of the same compound?
The inhibition was “Active”.

And the Activity ([1]; filed as agonist)?
The Activity was 77%.

And the inhibition (LX-2 [5])?
Its inhibition is “Active”.

Which Activity ([1]; filed as agonist) does the source give for `CC(C)(O)CCOc1cccc2c1CCCC2OC(=O)C1=C[C@@H](O)[C@@H](O)[C@H](O)C1` (stereo partly specified) here?
Its Activity is 45%.

How did the Activity ([1]; filed as agonist) turn out when `C=CCC(O)(CC=C)CCCOc1cccc2c1CCCC2OC(=O)C1=C[C@@H](O)[C@@H](O)[C@H](O)C1` (stereo partly specified) was run?
The Activity was 51%.

Which results are given for `C=C1/C(=C\C=C2/CCC[C@]3(C)[C@@H]([C@H](C)/C=C/[C@@H](O)C4CC4)CC[C@@H]23)C[C@@H](O)C[C@@H]1O`?
inhibition (LX-2 [8]): inactive; inhibition (LX-2 [9]): inactive; Activity ([1]; filed as agonist): 100%

`CCN(CC)CCCOc1cccc2c1CCCC2OC(=O)C1=C[C@@H](O)[C@@H](O)[C@H](O)C1` (stereo partly specified) was tested. Which Activity ([1]; filed as agonist) did it give?
Its Activity is 64%.

How did the Activity ([1]; filed as agonist) turn out when `O=C(COc1ccc(/C=C/C2=C[C@@H](O)[C@@H](O)[C@H](O)C2)c2c1CCCC2)N1CCOCC1` was run?
Its Activity is 45%.

For `CCC(O)(CC)CCCOc1ccc(C#CC2=C[C@@H](O)[C@@H](O)[C@H](O)C2)c2c1CCCC2`, which Activity [1] is on record?
Its Activity is “inactive”.
